Data taken from publication PMC11106675, “Synthesis of 1,4-azaphosphinine nucleosides and evaluation as inhibitors of human cytidine deaminase and APOBEC3A” (Beilstein Journal of Organic Chemistry, 2024).
Like-named read-outs stand apart in the source and are kept apart here.

Legend:
[1] = Stability in aqueous solution (NMR samples); format: physicochemical; details: for stability in sodium phosphate buffer: pH 7.0, NMR samples, several days
Source text: Catalytic hydrogenation is usually used for the removal of benzyl protecting groups. However, standard hydrogenation conditions using 10% Pd/C led to reduction of the C=C double bond in the nucleobase, providing nucleoside 24 (Scheme 3). To circumvent this problem, we used poisoned Pd catalyst (Lindlar’s catalyst, 5% Pd/CaCO3/3% Pb) and obtained the desired nucleoside 18. Individual anomers of nucleosides 18 and 24 were separated on a C18 column using a gradient of CH3CN in H2O. Removal of toluoyl groups was accomplished in aq NH3, providing pure α- and β-nucleoside of Va and Vc, respectively, carrying a negatively charged phosphinic acid group.

[2] = Estimation of pKa from change of λmax as a function of pH; format: physicochemical; details: estimated from change in λmax as a function of pH
Protocol: Figure S6. UV-vis spectra of compounds Va (A) and Vb (B) at 100 µM in 20 mM phosphate buffer, containing 10 %
Estimation of pKa of nucleoside Va
A change of λmax of nucleoside Va as a function of pH of the solution was plotted (Figure below) and
Figure S7. Change in λmax of nucleoside Va as a function of pH.
(1 picture or pasted object on this page, not shown here)

[3] = molecular target: T1, human cytidine deaminase (hCDA) (Homo sapiens, UniProt P32320); experiment: UV kinetic assay of hCDA-catalysed 2'-deoxycytidine deamination; format: biochemical; details: for Ki: substrate dC, competitive inhibition assumed
T1 construct: purchased Sigma-Aldrich SRP6372; host or cells: E. coli
T1 sequence (P32320 whole entry): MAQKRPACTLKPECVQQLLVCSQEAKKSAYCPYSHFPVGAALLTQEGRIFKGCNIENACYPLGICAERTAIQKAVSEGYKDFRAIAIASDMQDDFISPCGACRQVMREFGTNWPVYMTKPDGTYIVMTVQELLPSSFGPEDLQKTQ
Protocol: We monitored the hCDA-catalysed deamination of dC at 286 nm and analysed the kinetic profiles at various inhibitor concentrations using a global regression analysis of the kinetic data using Lambert’s W function. This method provides better estimates for the Michaelis–Menten constant (KM) and maximum velocity (Vmax) than nonlinear regression analysis of the initial rate (V0). […] Then, KM for the substrate and Ki for each inhibitor were calculated, assuming competitive nature of the inhibitors (Table 1).
We assumed that protonation of Va might result in some inhibition of hCDA. […] This means that the pH value of the assay should be close to pH 1.5 to see any meaningful effect of partially protonated compound Va, but hCDA would be denatured at this pH value. By lowering the pH value to 6.0, dZ (IIc) started to lose potency against hCDA (Table 1), which might be a result of protonation of the pyrimidine ring in dZ (IIc). […] At this pH value, less than 1 in 1,000 molecules of Va might be protonated, which could mean that protonated acid Va is a potent hCDA inhibitor.
Protein expression and purification
Recombinant human cytidine deaminase (hCDA) expressed in E.Coli was purchased form Sigma-Aldrich, product No SRP6372. […]
UV kinetic assay of hCDA-catalysed 2'-deoxycytidine
UV spectroscopy was used to monitor hCDA-catalysed deamination of 2'-deoxycytidine at 286 nm in 100 mM NaCl, 50 mM phosphate buffer at 25 °C at various pH as mentioned in the text. Cary 300 Bio UV-vis spectrometer from Varian was used. Enzymatic reactions were performed in a q uartz cuvette (0.1 cm). Deamination of 2'-deoxycytidine leads to a decrease in absorption at 286 nm (Figure […]
Figure S10. hCDA (27nM) catalysed deamination of 2'-deoxycitidine (⁓1.5 mM) in the absence (plus) and presence of 5 µM 2'-deoxyzebularine (IIc, asterisk) monitored by measuring absorbance at 286 nm over time in 100 mM NaCl, 1 mM TCEP, 50 mM phosphate buffer at 25 °C, at pH 7.4.
The uninhibited deamination (pluses, Figure S10) and the inhibited reaction start at about the same speed. As the reaction progresses, the inhibited reaction becomes slower, as its observed KM is larger than in the uninhibited case. In order to be able to visualize the fitted curves, only every 5th data point is plotted. The data was then fitted using Gnuplot to the integrated Michaelis Menten equation [10]: […]
(1 picture or pasted object on this page, not shown here) […]
where mm(t) calculates the current substrate concentration with respect to the time, t. The four parameters which are fitted are KM and vmax, the Michaelis-Menten constants, c is the initial substrate concentration and d is a baseline correction parameter. A summary of the measured inhibition […]
An increase in concentration of an inhibitor in enzymatic reaction leads to an increase in the observed KM value. The plot of observed KM values versus inhibitor concentration (Figures S11–S13) was then fitted with linear regression (y = ax + b) to derive the inhibition constant (Ki) using the following […]
Uncertainty of Ki was calculated using error-propagation method.
Figure S11. A plot of observed KM versus various concentration of dZ (IIc) in hCDA (27 nM) catalysed deamination of 2'-deoxycitidine in 100 mM NaCl, 1 mM TCEP, 50 mM phosphate buffer at 25 °C, at pH 7.4. […]

A3 enzymes = system: A3 enzymes; set-up: method as in PMID 30418757; details: as the free nucleoside; cited from earlier work

With O=C1CP(=O)(O)C=CN1C1CC(O)C(CO)O1 (stereo not drawn) [Va] as the molecule, how does the “stability in sodium phosphate buffer” value [1] read?
The value was “no decomposition”.

What about the stability in water ([1]; pH 7.4) of the same molecule?
Its stability in water is “excellent stability”.

And the pKa [2]?
Its pKa is no more than 1.5.

What about the Ki ([3]; pH 7.4, 25 °C) of the same molecule?
The Ki was “lack of inhibition”.

For O=C1CP(=O)(O)CCN1C1CC(O)C(CO)O1 (stereo not drawn) [Vc], which “stability in sodium phosphate buffer” value [1] is on record?
The value was “no decomposition”.

With Nc1ccn([C@H]2C[C@H](O)[C@@H](CO)O2)c(=O)n1 [dC, 2'-deoxycytidine, reference compound] as the molecule, how does the Km ([3]; pH 7.4, fitted in the experiment with inhibitor dZ (IIc), read-out: Km of dC) read?
The Km was 260 ± 40 µM.

Which “inhibition of A3 enzymes” value (A3 enzymes) does the source give for O=c1ncccn1[C@H]1C[C@H](O)[C@@H](CO)O1 [dZ (IIc), 2'-deoxyzebularine, reference compound] here?
The value was “does not inhibit”.

What about the Km/Ki ([3]; pH 6.0) of the same molecule?
Its Km/Ki is 5.5.

What about the Ki ([3]; pH 6.0, 25 °C, read-out: Ki) of the same molecule?
The Ki was 49 ± 13 µM.

What about the Km/Ki ([3]; pH 7.4) of the same molecule?
Its Km/Ki is 24.

For O=C1CP(=O)(O)C=CN1C1CC(O)C(CO)O1 (stereo not drawn) [β-anomer of Va], which Ki ([3]; pH 4.7, 25 °C, read-out: Ki) is on record?
The Ki was 560 ± 100 µM.

What about the Ki ([3]; pH 6.0, 25 °C) of the same molecule?
Its Ki is “no inhibition”.

And the Ki ([3]; pH 7.4, 25 °C)?
Its Ki is “no inhibition”.

What does the source list for NP1(=O)C=CN(C2CC(O)C(CO)O2)C(=O)C1 (stereo not drawn) [β-anomer of Vb]?
Km/Ki ([3]; pH 7.4): 30; Ki ([3]; pH 7.4, 25 °C, read-out: Ki): 8 ± 1.9 µM
